Reference: patent US7105505B2, “Benzimidazole derivatives useful as histamine H3 antagonists” (Schering Corporation, priority 2002, dated 2006)

How the values were obtained:
[1] = molecular target: T1, human histamine H3 receptor (Homo sapiens, UniProt Q9Y5N1); assay: rHu H3 Binding Assay (HEK-293 membranes); conditions: Receptor Source rHu, 1.2 nM [3H]Nα-methylhistamine
T1 construct: expressed in transfected cells
Protocol: General Procedure for rHu H3Binding Assay
[^3H]N^∝-methylhistamine (82 Ci/mmole) was obtained from Dupont NEN. Thioperamide was obtained from the Chemical Research Department, Schering-Plough Research Institute.
HEK-293 human embryonic kidney cells stably expressing the human histamine H3 receptor were cultured in Dulbecco's modified Eagle's medium/10% fetal calf serum/penicillin (100 U/ml)/streptomycin (100 μg/ml)/Geneticin (0.5 mg/ml) at 37° C. in a humidified 5% CO2 atmosphere. Cells were harvested between passages five and twenty at 37° C. in 5 mM EDTA/Hank's balanced salt solution and processed for membrane preparation. After low-speed centrifugation, ten min at 1000×g, they were put into ten volumes of ice-cold buffer and disrupted with a Polytron (PTA 35/2 tip, 30 sec at setting 6). After subsequent low-speed centrifugation, supernatant was centrifuged ten min at 50,000×g. The high-speed pellet was resuspended in the original volume of buffer, a sample was taken for protein assay (bicinchoninic acid, Pierce) and the suspension was centrifuged again at 50,000×g. Membranes were resuspended at 1 mg of protein/ml of buffer and frozen at −80° C. until use.
Membrane (15 μg of protein) was incubated with 1.2 nM [^3H]N^∝-methyl-histamine, without or with inhibitor compounds, in a total volume of 200 μl of buffer. Nonspecific binding was determined in the presence of 10^−5 M thioperamide. Assay mixtures were incubated for 30 min at 30° C. in polypropylene, 96-well, deep-well plates, then filtered through 0.3% polyethylenimine-soaked GF/B filters. These were washed three times with 1.2 ml of 4° C. buffer, dried in a microwave oven, impregnated with Meltilex wax scintillant and counted at 40% efficiency in a Betaplate scintillation counter (Wallac).
IC50 values were interpolated from the data or were determined from curves fit to the data with Prism nonlinear least squares curve-fitting program (GraphPad Software, San Diego, Calif.). Ki values were determined from IC50 values according to the Cheng and Prusoff equation.

H3 receptors = molecular target: T2, H3 receptors (Cavia porcellus, UniProt Q9JI35); assay: H3 Receptor Binding Assay (guinea pig brain membranes); conditions: Receptor Source Guinea pig, [3H]R-α-methyl histamine or [3H]Nα-methyl histamine
T2 construct: The source of the H3 receptors in this experiment was guinea pig brain; from tissue; host or cells: guinea pig brain membranes
Protocol: General Procedure for H3Receptor Binding Assay
The source of the H3 receptors in this experiment was guinea pig brain. The animals weighed 400–600 g. The brain tissue was homogenized with a solution of 50 mM Tris, pH 7.5. The final concentration of tissue in the homogenization buffer was 10% w/v. The homogenates were centrifuged at 1,000×g for 10 min. in order to remove clumps of tissue and debris. The resulting supernatants were then centrifuged at 50,000×g for 20 min. in order to sediment the membranes, which were next washed three times in homogenization buffer (50,000×g for 20 min. each). The membranes were frozen and stored at −70° C. until needed.
All compounds to be tested were dissolved in DMSO and then diluted into the binding buffer (50 mM Tris, pH 7.5) such that the final concentration was 2 μg/ml with 0.1% DMSO. Membranes were then added (400 μg of protein) to the reaction tubes. The reaction was started by the addition of 3 nM [^3H]R-α-methyl histamine (8.8 Ci/mmol) or 3 nM [^3H]N^α-methyl histamine (80 Ci/mmol) and continued under incubation at 30° C. for 30 min. Bound ligand was separated from unbound ligand by filtration, and the amount of radioactive ligand bound to the membranes was quantitated by liquid scintillation spectrometry. All incubations were performed in duplicate and the standard error was always less than 10%. Compounds that inhibited more than 70% of the specific binding of radioactive ligand to the receptor were serially diluted to determine a Ki (nM).

T1 sequence (Q9Y5N1 whole entry): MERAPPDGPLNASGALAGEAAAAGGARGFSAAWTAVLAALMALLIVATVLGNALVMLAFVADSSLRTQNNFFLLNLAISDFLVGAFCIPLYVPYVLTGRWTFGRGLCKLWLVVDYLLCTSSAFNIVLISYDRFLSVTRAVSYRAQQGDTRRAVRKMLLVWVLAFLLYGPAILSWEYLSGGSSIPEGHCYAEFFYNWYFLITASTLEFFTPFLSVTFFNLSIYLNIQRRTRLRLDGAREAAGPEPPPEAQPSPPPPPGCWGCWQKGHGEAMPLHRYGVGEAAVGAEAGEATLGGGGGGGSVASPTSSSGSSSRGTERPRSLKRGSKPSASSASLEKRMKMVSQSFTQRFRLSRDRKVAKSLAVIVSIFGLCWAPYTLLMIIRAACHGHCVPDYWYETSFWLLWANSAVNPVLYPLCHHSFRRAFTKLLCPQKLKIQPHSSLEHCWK
T2 sequence (Q9JI35 whole entry): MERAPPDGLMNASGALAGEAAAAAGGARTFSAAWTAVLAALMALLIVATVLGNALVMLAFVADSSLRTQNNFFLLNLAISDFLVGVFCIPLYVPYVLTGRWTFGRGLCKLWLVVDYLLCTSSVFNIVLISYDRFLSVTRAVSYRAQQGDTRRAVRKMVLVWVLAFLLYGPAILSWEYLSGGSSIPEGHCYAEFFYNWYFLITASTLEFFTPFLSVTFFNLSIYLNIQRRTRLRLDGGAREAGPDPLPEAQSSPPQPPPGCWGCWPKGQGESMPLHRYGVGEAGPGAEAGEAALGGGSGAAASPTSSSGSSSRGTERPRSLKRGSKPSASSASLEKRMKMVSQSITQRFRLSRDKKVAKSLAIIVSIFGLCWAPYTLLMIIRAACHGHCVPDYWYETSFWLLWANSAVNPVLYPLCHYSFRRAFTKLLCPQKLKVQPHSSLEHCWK

SMILES | Ki [1] [nM] | Ki (H3 receptors) [nM]
Nc1cc(CN2CCC(C(=O)N3CCC(n4c(-c5ccccn5)nc5cc(F)ccc54)CC3)CC2)ccn1 [Example 1] | 1 | 
Nc1cc(CN2CCC(C(=O)N3CCC(c4nc5ccc(Cl)cc5[nH]4)CC3)CC2)ccn1 [Example 3] |  | 13
Nc1ncc(CN2CCC(F)(C(=O)N3CCC(n4c(-c5ccccn5)nc5cccnc54)CC3)CC2)cn1 [Example 5] | 9 | 
Nc1cc(CN2CCC(C(=O)N3CCC(n4c(-c5cc(Cl)cc(Cl)c5)nc5ccc(Cl)cc54)CC3)CC2)ccn1 [Example 54] |  | 30
Nc1cc(CN2CCC(C(=O)N3CCC(n4c(-c5ccccn5)nc5cc(F)c(F)cc54)CC3)CC2)ccn1 [Example 71] |  | 1
Cc1cc(-c2nc3cc(F)ccc3n2C2CCN(C(=O)C3CCN(Cc4ccnc(N)c4)CC3)CC2)no1 [Example 94] |  | 1
CSc1nc2cc(F)ccc2n1C1CCN(C(=O)C2CCN(Cc3ccnc(N)c3)CC2)CC1 [Example 109] | 1 | 
Nc1cc(CN2CCC(C(=O)N3CCC(n4c(N5CCOCC5)nc5cc(F)ccc54)CC3)CC2)ccn1 [Example 120] |  | 0.3
Nc1cc(CN2CCC(F)(C(=O)N3CCC(n4c(N5CCOCC5)nc5cc(F)ccc54)CC3)CC2)ccn1 [Example 165] | 2 | 
Nc1cc(CN2CCC(C(=O)N3CCC(n4c(C5CC5)nc5cccnc54)CC3)CC2)ccn1 [Example 170] |  | 0.5
Nc1cc(CN2CCC(C(=O)N3CCC(n4c(-c5ccc(F)cc5)nc5cccnc54)CC3)CC2)ccn1 [Example 173] |  | 0.4
Nc1cc(CN2CCC(C(=O)N3CCC(n4c(-c5cc(-c6ccc(F)cc6)on5)nc5cccnc54)CC3)CC2)ccn1 [Example 195] |  | 10
Nc1ncc(CN2CCC(C(=O)N3CCC(n4c(-c5ccccn5)nc5cc(F)ccc54)CC3)CC2)cn1 [Example 211] |  | 7
Nc1ncc(CN2CCC(F)(C(=O)N3CCC(n4c(-c5ccc(F)cc5F)nc5cc(F)ccc54)CC3)CC2)cn1 [Example 254] |  | 13
CSc1nc2cc(F)ccc2n1C1CCN(C(=O)C2CCN(Cc3cnc(N)nc3)CC2)CC1 [Example 269] | 4 | 
CCOc1nc2cc(F)ccc2n1C1CCN(C(=O)C2(F)CCN(Cc3cnc(N)nc3)CC2)CC1 [Example 270] | 4 | 
Nc1ncc(CN2CCC(F)(C(=O)N3CCC(n4c(-c5ccoc5)nc5cccnc54)CC3)CC2)cn1 [Example 281] | 4 | 
CSc1nc2cc(F)ccc2n1C1CCN(C(=O)C2(F)CCN(Cc3cnc(N)nc3)CC2)CC1 [Example 290] | 3 | 
COc1nc2cc(F)ccc2n1C1CCN(C(=O)C2(F)CCN(Cc3cnc(N)nc3)CC2)CC1 [Example 297] | 4 | 
CSc1nc2cccnc2n1C1CCN(C(=O)C2(F)CCN(Cc3cnc(N)nc3)CC2)CC1 [Example 315] | 5 | 
CCOc1nc2cccnc2n1C1CCN(C(=O)C2(F)CCN(Cc3cnc(N)nc3)CC2)CC1 [Example 316] | 5 | 
CC(C)Oc1nc2cc(F)ccc2n1C1CCN(C(=O)C2(F)CCN(Cc3cnc(N)nc3)CC2)CC1 [Example 326] | 2 | 
Nc1ncc(CN2CCC(F)(C(=O)N3CCC(n4c(-c5cccc[n+]5[O-])nc5cccnc54)CC3)CC2)cn1 [Example 388] | 30 | 
O=C(N1CCC(n2c(-c3ccccn3)nc3cc(F)ccc32)CC1)C1(F)CCN(Cc2ccnnc2)CC1 [Example 423] | 5 | 

SMILES | Ki [1] [nM] | Ki (H3 receptors) [nM]
O=C(C1CCN(Cc2cc[nH]n2)CC1)N1CCC(n2c(-c3ccccn3)nc3cc(F)ccc32)CC1 [Example 442] | 1 | 
Nc1ncc(CN2CCC(F)(C(=O)N3CCC(n4c(Oc5ccccc5)nc5cc(F)ccc54)CC3)CC2)cn1 [Example 449] | 1 | 
CCCOc1nc2cc(F)ccc2n1C1CCN(C(=O)C2(F)CCN(Cc3cnc(N)nc3)CC2)CC1 [Example 459] | 4 | 
CCCOc1nc2cc(F)ccc2n1C1CCN(C(=O)C2CCN(Cc3cnc(N)nc3)CC2)CC1 [Example 460] | 4 | 
CCc1nc2cc(F)ccc2n1C1CCN(C(=O)C2(F)CCN(Cc3cnc(N)nc3)CC2)CC1 [Example 468] | 10 | 
CSc1nc2cc(F)ccc2n1C1CCN(C(=O)C2CCN(Cc3ccnnc3)CC2)CC1 [Example 493] | 1 | 
CSc1nc2cc(Cl)ccc2n1C1CCN(C(=O)C2CCN(Cc3cnc(N)nc3)CC2)CC1 [Example 502] | 7 | 
CCOc1nc2cc(F)ccc2n1C1CCN(C(=O)C2CCN(Cc3ccnnc3)CC2)CC1 [Example 512] | 2 | 
Nc1ncc(CN2CCC(C(=O)N3CCC(n4c(SCc5ccccc5)nc5cc(F)ccc54)CC3)CC2)cn1 [Example 547] | 14 | 
CCCOc1nc2cccnc2n1C1CCN(C(=O)C2CCN(Cc3ccnnc3)CC2)CC1 [Example 552] | 4 | 
O=C(C1CCN(Cc2ccnnc2)CC1)N1CCC(n2c(-c3ccccn3)nc3cc(Cl)ccc32)CC1 [Example 557] | 19 | 
COc1nc2cc(F)ccc2n1C1CCN(C(=O)C2CCN(Cc3ccnnc3)CC2)CC1 [Example 571] | 2 | 
CSc1nc2cc(F)c(F)cc2n1C1CCN(C(=O)C2(F)CCN(Cc3ccnc(N)c3)CC2)CC1 [Example 574] | 2 | 
CCSc1nc2cc(C(F)(F)F)ccc2n1C1CCN(C(=O)C2CCN(Cc3cnc(N)nc3)CC2)CC1 [Example 577] | 44 | 
CCCSc1nc2cccnc2n1C1CCN(C(=O)C2CCN(Cc3ccnnc3)CC2)CC1 [Example 588] | 6 | 
CCOc1nc2cc(Cl)ccc2n1C1CCN(C(=O)C2CCN(Cc3ccnnc3)CC2)CC1 [Example 592] | 9 | 
CSc1nc2cc(S(C)(=O)=O)ccc2n1C1CCN(C(=O)C2CCN(Cc3ccnnc3)CC2)CC1 [Example 595] | 41 | 
CCc1nc2cc(F)ccc2n1C1CCN(C(=O)C2CCN(Cc3cnc(N)nc3)CC2)CC1 [Example 598] | 17 | 
Nc1cc(CCCN2CCC(C(=O)N3CCC(n4c(-c5ccccn5)nc5cccnc54)CC3)CC2)ccn1 [Example 608] | 1 | 
CCCc1nc2cc(F)ccc2n1C1CCN(C(=O)C2CCN(Cc3cnc(N)nc3)CC2)CC1 [Example 618] | 9 | 
CCCc1nc2cc(F)ccc2n1C1CCN(C(=O)C2CCN(Cc3ccnnc3)CC2)CC1 [Example 619] | 2 | 
CSc1nc2cc(Cl)ccc2n1C1CCN(C(=O)C2(F)CCN(Cc3cnc(N)nc3)CC2)CC1 [Example 625] | 10 | 
CSc1nc2cc(Cl)ccc2n1C1CCN(C(=O)C2CCN(Cc3ccnnc3)CC2)CC1 [Example 628] | 4 | 
